Measured values published in PMC12715788, “Unraveling the Potential of Small Molecule Heparin Glycomimetics in Neuroregenerative Therapeutics” (Journal of the American Chemical Society, 2025).
Values joined by “and” are separate entries in the source; they are usually repeats but may differ in a detail not shown here. Equal values may be shown once. “Also recorded” adds a separate entry of the source.

What was measured:
FGF-2 [1] = biological target: T1, FGF-2 (Homo sapiens, UniProt P09038); experiment: BLI competition assay with immobilized native HS for FGF-2 binding; details: for competition with immobilized native HS for FGF-2 binding, signal intensity: FGF-2 50 nM premixed with varying concentrations; for IC50: FGF-2 50 nM, fixed association time t = 240 s, read-out: Apparent IC50(t), competition with immobilized native HS for FGF-2 binding
T1 sequence (P09038 134-288 limits assumed, species assumed): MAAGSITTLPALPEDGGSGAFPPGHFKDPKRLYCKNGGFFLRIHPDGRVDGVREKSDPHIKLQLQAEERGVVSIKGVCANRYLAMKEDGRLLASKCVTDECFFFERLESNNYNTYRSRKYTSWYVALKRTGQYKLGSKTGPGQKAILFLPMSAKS
Source text: We next examined the functional relevance of the synthetic HS glycomimetics by testing their ability to compete with native HS for FGF-2 binding using competition assays. Although direct binding assays measure the intrinsic affinity of HS glycomimetics for FGF-2, they are limited in representing the complex, multimolecular environment of biological systems. In vivo, FGF-2 activity is tightly regulated by its interactions with GAGs, which are abundant on cell surfaces and in the ECM. These interactions stabilize FGF-2 and facilitate its dimerization with FGF receptors (FGFRs), a requirement for effective signal transduction. , Thus, therapeutic candidates targeting FGF-2 must be evaluated not only for direct binding but also for their ability to modulate or disrupt GAG-mediated interactions. Therefore, we performed competition assays in which native HS was immobilized on the sensor surface. Solutions containing a fixed concentration of FGF-2 (50 nM) were premixed with varying concentrations of HS glycomimetics, functioning as inhibitors in this context, (M1, D1, D2, D3, and T1) and also with the heparin hexasaccharide (H1) (GlcNS6S-GlcA-GlcNS3S6S-IdoA2S-GlcNS6S-GlcA), a well-studied HS glycomimetic in the literature, as a positive control (Figure B). […] The progressive decrease in signal intensity with increasing inhibitor concentration directly reflects competition with immobilized HS for FGF-2 binding.

[2] = test system: citrated pooled rat plasma; experiment: Activated partial thromboplastin time (aPTT) assay; details: citrated pooled rat plasma; highest concentration tested; control 22 s
Source text: To complement these findings, we performed an activated partial thromboplastin time (aPTT) assay in citrated pooled rat plasma to assess the overall impact of the compounds on the intrinsic coagulation pathway. This global clotting assay measures the time required for fibrin formation and is sensitive to anticoagulant effects. Figure F,G compare the effects of UFH, heparan sulfate, Fondaparinux, and the synthetic glycomimetics when supplemented into citrated plasma. […] As expected, UFH produced a strong, concentration-dependent anticoagulant response, prolonging the mean clotting time to 271 s at the highest concentration tested, while heparan sulfate and Fondaparinux induced weaker but measurable effects (83 and 37 s, respectively). […] The results further confirm that selective sulfation patterns can decouple GF recognition from anticoagulant function, an essential prerequisite for their translational application in regenerative medicine. […] These interactions are in line with nonspecific electrostatic binding, a feature of highly sulfated oligosaccharides known to engage different proteins via charge-based, rather than specific, biologically targeted interactions. Thus, to avoid potential off-target effects associated with highly sulfated analogues, we selected the disaccharide D2 for subsequent biological experiments.

FGF-1 = FGF-1 (Homo sapiens, UniProt P05230); experiment: Far-UV CD spectroscopy and CD thermal denaturation; details: CD thermal denaturation 10–90 °C; protein with sugar, 1:3 molar ratio
FGF-1, sequence (P05230 whole entry, species assumed): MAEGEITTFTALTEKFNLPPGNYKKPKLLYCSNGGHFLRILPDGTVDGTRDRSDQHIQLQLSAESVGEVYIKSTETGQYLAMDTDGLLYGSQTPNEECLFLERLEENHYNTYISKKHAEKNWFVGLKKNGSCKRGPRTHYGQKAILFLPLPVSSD
Source text: (§1) To select a lead compound, we complemented the affinity data with a series of studies evaluating the structural and functional implications of protein-HS glycomimetic interactions. We assessed the therapeutic safety profile of our HS glycomimetics. We also employed circular dichroism (CD) spectroscopy to assess secondary structural changes in protein conformation upon binding to native HS and HS glycomimetics. Since native HS alone produces only a minimal signal, it was ensured that its contribution would not interfere with protein-sugar complex spectra. Therefore, only the far-UV CD spectra of bare proteins and their sugar complexes were recorded. […] Upon incubation with sugars (1:3 molar ratio), significant spectral changes were observed, indicating sugar-induced alterations in secondary structure (Figure A).
(§2) We also evaluated the thermal stability of the proteins and their sugar complexes by CD-based thermal denaturation experiments. The spectra were recorded across a temperature range of 10–90 °C (Figure B). For all proteins except AT-III, the unfolding profiles were analyzed to determine the melting temperature (T m), representing the midpoint of the transition from the folded to the unfolded state, an indicator of structural integrity and resistance to thermal denaturation. The calculated values are compiled in Table .

FGF-2 [3] = biological target: T1, FGF-2; experiment: Far-UV CD spectroscopy and CD thermal denaturation; details: CD thermal denaturation 10–90 °C; protein with sugar, 1:3 molar ratio
Source text: as §1, §2

Factor Xa = experiment: AT-III-mediated chromogenic substrate assay; format: biochemical; details: absorbance at 405 nm
Source text: (§3) Active coagulation factors cleave chromogenic peptide substrates, therefore producing p-nitroaniline, a yellow-colored product with a detectable absorbance signal at λ = 405 nm. Inhibitors like heparin-AT-III complexes decrease enzyme activity and so lower absorbance readings.

Factor IIa (thrombin) = experiment: AT-III-mediated chromogenic substrate assay; format: biochemical; details: absorbance at 405 nm
Source text: as §3

AT-III = AT-III (Homo sapiens, UniProt P01008); experiment: BLI binding assay, sugars immobilized, protein as analyte
AT-III, sequence (P01008 33-464): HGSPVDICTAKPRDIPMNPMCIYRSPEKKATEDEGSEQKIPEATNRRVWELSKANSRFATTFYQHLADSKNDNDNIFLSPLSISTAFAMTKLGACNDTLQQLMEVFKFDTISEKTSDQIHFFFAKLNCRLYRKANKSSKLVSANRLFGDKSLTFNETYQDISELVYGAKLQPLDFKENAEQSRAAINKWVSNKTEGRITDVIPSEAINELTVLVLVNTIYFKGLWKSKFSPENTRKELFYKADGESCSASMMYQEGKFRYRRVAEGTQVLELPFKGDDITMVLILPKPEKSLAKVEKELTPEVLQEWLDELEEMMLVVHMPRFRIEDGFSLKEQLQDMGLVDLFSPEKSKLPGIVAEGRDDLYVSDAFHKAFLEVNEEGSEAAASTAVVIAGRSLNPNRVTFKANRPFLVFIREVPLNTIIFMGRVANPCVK
Protocol: We evaluated the binding affinity of native HS and synthetic HS glycomimetics (M1, D1, D2, D3, and T1) to these proteins using biolayer interferometry (BLI). The terminal amino groups of the sugars were immobilized onto the sensor surface using standard amine coupling chemistry, and binding assays were performed by introducing the proteins as analytes at varying concentrations (Figure A). The equilibrium dissociation constants (K D) were determined using the steady-state affinity curve fitting.

[4] = test system: rat dissociated hippocampal neurons; experiment: Neurite morphometry in dissociated hippocampal neurons; format: cell-based; details: 24 h treatment, 1 day in vitro, D2 1 μM, FGF-2 40 ng/mL, mean ± SEM
Protocol: In the pursuit of this, we used rat dissociated hippocampal neurons as an in vitro model system. We assessed the impact of HS glycomimetics on neuronal morphology, using immunofluorescence imaging and quantitative morphometric analysis, and on synaptic functionality through electrophysiological monitoring of spontaneous neuronal activity.
During the first day of differentiation in vitro (Table S7.1 in SI), neurons were treated for 24 h with either control medium, glycomimetic D2 (1 μM), FGF-2 (40 ng/mL) alone, or a combination of FGF-2 and D2 (40 ng/mL and 1 μM, respectively). After treatments, cultures were fixed and immuno-labeled with antibodies against the neuronal marker β-Tubulin III to study cell morphology. […] Quantitative analysis further corroborated these observations (Figure B–C).

hippocampal neurons = experiment: Patch clamp recording of spontaneous synaptic activity in hippocampal neurons; format: cell-based, rat; details: 24 h treatment, neurons at 8 days in vitro, voltage clamp −58 mV; mean ± SEM
Source text: In another set of experiments, we investigated the impact of D2+FGF-2, with respect to that of FGF-2 alone, on the formation of functionally active neuronal networks. To this aim, we used hippocampal neurons developed in vitro for 1 week, from which, through the single-cell patch clamp technique, we recorded in voltage clamp mode spontaneous synaptic activity. […] While neurons treated with FGF-2 alone presented sPSCs of fluctuating amplitude (in average 42 ± 5 pA) at a frequency of 1.23 ± 0.38 Hz, the coapplication of D2 with the growth factor induced a statistically significant enhancement of both these values (for D2+FGF-2, sPSCs frequency: 2.52 ± 0.47 Hz, and sPSCs amplitude: 75 ± 14 pA, p < 0.05 FGF-2 vs D2+FGF-2, Figure E–F).

aPTT mean clotting time [2]	FGF-1 Sample Tm (FGF-1)	FGF-2 Sample Tm (FGF-2 [3])	IC50 (FGF-2 [1])	Compound	competition with immobilized native HS for FGF-2 binding, signal intensity (FGF-2 [1])	other results
22.5 s	44.5 °C and 44.5 ± 0.4 °C	51.6 °C and 51.6 ± 1.9 °C		CC(=O)N[C@H]1[C@@H](OCCN)O[C@H](CO)[C@@H](O[C@@H]2O[C@@H](C(=O)O)[C@@H](OS(=O)(=O)O)[C@H](O)[C@H]2OS(=O)(=O)O)[C@@H]1O [D1, IdoA2S4S-GlcNAc]	much weaker effect; also recorded: minimal inhibition	
25.3 s	45.3 °C and 45.3 ± 0.3 °C	54.2 °C and 54.2 ± 1.2 °C	84500 nM	NCCCCCOC1OC(COS(=O)(=O)O)C(OC2OC(C(=O)NNS(=O)(=O)O)C(OS(=O)(=O)O)C(O)C2OS(=O)(=O)O)C(O)C1NS(=O)(=O)O (stereo not shown) [D3, GlcANS6S-GlcNS6S]	dose-dependent reduction in signal intensity	
37 s				CO[C@H]1O[C@H](COS(=O)(=O)O)[C@@H](O[C@@H]2O[C@@H](C(=O)O)[C@@H](O[C@H]3O[C@H](COS(=O)(=O)O)[C@@H](O[C@@H]4O[C@H](C(=O)O)[C@@H](O[C@H]5O[C@H](COS(=O)(=O)O)[C@@H](O)[C@H](O)[C@H]5NS(=O)(=O)O)[C@H](O)[C@H]4O)[C@H](OS(=O)(=O)O)[C@H]3NS(=O)(=O)O)[C@H](O)[C@H]2OS(=O)(=O)O)[C@H](O)[C@H]1NS(=O)(=O)O [Fondaparinux, reference compound]		AT-III-mediated Factor Xa activity (Factor Xa): selectively inhibited
22 s	43.3 °C and 43.3 ± 0.4 °C	50.7 °C and 50.7 ± 0.2 °C		CC(=O)N[C@H]1[C@@H](OCCN)O[C@H](COS(=O)(=O)O)[C@@H](O)[C@@H]1O [M1, GlcNAc6S]	much weaker effect; also recorded: minimal inhibition	
28.5 s	46.3 °C and 46.3 ± 0.5 °C	59.3 °C and 59.3 ± 2.2 °C	900 nM and 910 nM	NC[C@H]1O[C@H](O[C@H]2[C@H](OS(=O)(=O)O)[C@@H](OS(=O)(=O)O)[C@@H](O[C@H]3[C@H](OS(=O)(=O)O)[C@@H](OS(=O)(=O)O)[C@@H](O[C@H]4[C@H](OS(=O)(=O)O)[C@@H](OS(=O)(=O)O)[C@@H]5OC[C@H]4O5)O[C@@H]3COS(=O)(=O)O)O[C@@H]2COS(=O)(=O)O)[C@H](OS(=O)(=O)O)[C@@H](OS(=O)(=O)O)[C@@H]1OS(=O)(=O)O [T1, Glc2S3S-Glc2S3S6S-Glc2S3S6S-Glc2S3S]	dose-dependent reduction in signal intensity	AT-III-mediated Factor IIa activity (Factor IIa (thrombin)): slight interactions; AT-III-mediated Factor Xa activity (Factor Xa): slight interactions; binding to AT-III (AT-III): bound to AT-III
				FGF-2: fibroblast growth factor-2, basic FGF, applied alone at 40 ng/mL		number of neurites emerging from the cell body ([4]; control 3.6 ± 0.22): 5.4 ± 0.28 neurites per neuron; length of the longest neurite ([4]; control 38 ± 2): 45 ± 4 μm; sPSCs amplitude (hippocampal neurons): 42 ± 5 pA; sPSCs frequency (hippocampal neurons): 1.23 ± 0.38 Hz
			2610 nM	GlcNS6S-GlcA-GlcNS3S6S-IdoA2S-GlcNS6S-GlcA [H1, reference compound]		
